Test results taken from the NIST ThermoML archive (doi:10.1021/je2010038).

Assay: xn = mol fraction of the nth substance listed
Settings: for mass density: Liquid, Vibrating tube method; for surface tension liquid-gas: Pendant drop shape

NCCO [2-aminoethan-1-ol] + O
mass density [kg/m3]
Settings | x1 = 0.1122 | x1 = 0.1643 | x1 = 0.2278 | x1 = 0.3067 | x1 = 0.4077 | x1 = 0.5412 | x1 = 0.7264 | x1 = 1
298.15 K, 101 kPa | 1010.9 | 1016.3 | 1021.3 | 1024.8 | 1026.3 | 1024.7 | 1020 | 1011.9
303.15 K, 101 kPa | 1008.4 | 1013.8 | 1018.2 | 1021.4 | 1022.8 | 1021 | 1016.2 | 1008
308.15 K, 101 kPa | 1006.2 | 1011 | 1015.2 | 1018.2 | 1019.3 | 1017.3 | 1012.3 | 1004
313.15 K, 101 kPa | 1003.5 | 1008.3 | 1012.1 | 1014.7 | 1015.7 | 1013.5 | 1008.5 | 1000
318.15 K, 101 kPa | 1001.1 | 1005.3 | 1009 | 1011.4 | 1012 | 1009.7 | 1004.5 | 996
323.15 K, 101 kPa | 998.1 | 1002.3 | 1005.6 | 1007.8 | 1008.3 | 1005.9 | 1000.6 | 992
328.15 K, 101 kPa | 995.5 | 999.2 | 1002.4 | 1004.4 | 1004.6 | 1002 | 996.7 | 988
333.15 K, 101 kPa | 992.3 | 996.1 | 999 | 1000.7 | 1000.8 | 998.2 | 992.7 | 983.9
338.15 K, 101 kPa | 989.5 | 992.7 | 995.4 | 997.1 | 997 | 994.2 | 988.7 | 979.8
343.15 K, 101 kPa | 986.1 | 989.4 | 991.9 | 993.2 | 993.1 | 990.2 | 984.6 | 975.8
348.15 K, 101 kPa | 983 | 985.9 | 988.3 | 989.5 | 989.2 | 986.2 | 980.6 | 971.6
353.15 K, 101 kPa | 979.4 | 982.4 | 984.5 | 985.6 | 985.2 | 982.1 | 976.5 | 967.5
358.15 K, 101 kPa | 976.1 | 978.7 | 980.8 | 981.8 | 981.2 | 978 | 972.3 | 963.4
363.15 K, 101 kPa | 972.5 | 975 | 976.9 | 977.7 | 977.1 | 973.9 | 968.1 | 959.2
373.1 K, 700 kPa | 965.3 | 967.2 | 969 | 969.4 | 968.5 | 965.3 | 959.3 | 950.9
383.15 K, 700 kPa | 957.4 | 959.1 | 960.6 | 960.8 | 959.8 | 956.5 | 950.6 | 942.3
393.15 K, 700 kPa | 949.1 | 950.7 | 952 | 952.1 | 950.9 | 947.6 | 941.7 | 933.5
403.15 K, 700 kPa | 940.6 | 941.9 | 943.1 | 943.1 | 941.9 | 938.6 | 932.7 | 924.7
413.15 K, 700 kPa | 931.7 | 932.9 | 934 | 933.8 | 932.6 | 929.3 | 923.6 | 915.7
423.15 K, 700 kPa | 922.3 | 923.3 | 924.3 | 924.1 | 922.8 | 919.5 | 914.1 | 906.4

surface tension liquid-gas [mN/m]
Settings | x1 = 0.032 | x1 = 0.069 | x1 = 0.112 | x1 = 0.164 | x1 = 0.228 | x1 = 0.307 | x1 = 0.407 | x1 = 0.541 | x1 = 0.726 | x1 = 1
303.15 K | 66.75 | 64.74 | 63.58 | 61.74 | 59.27 | 57.42 | 55.78 | 53.43 | 50.59 | 48.13
313.15 K | 65.51 | 63.29 | 62.55 | 60.27 | 58.19 | 56.35 | 54.82 | 52.41 | 49.63 | 46.66
323.15 K | 64.31 | 61.72 | 61.16 | 58.82 | 56.85 | 55.15 | 53.4 | 51.14 | 48.42 | 45.58
333.15 K | 62.46 | 60.07 | 59.39 | 57.29 | 55.39 | 53.61 | 51.77 | 49.62 | 47 | 44.63
